Assay results as given in paper PMC12583704 (Signal Transduction and Targeted Therapy, 2025).

Key:
[1] = test system: Ku812; parameters: method as in HQP1351 SJ0003 Protocol; conditions: ref HQP1351 SJ0003 Protocol; cited from earlier work
[2] = test system: TKI-resistant GIST; assay: SJ-0003 interim efficacy assessment; assay type: in vivo, human; conditions: as of January 31, 2021; 28 of 36 GIST subjects with at least one efficacy assessment
Method: Guangzhou HealthQuest Pharma Inc. HQP1351 […]
completely recovered to normal. The no observed adverse effect level (NOAEL) was 1.0 […]
In a 28-day repeat-dose toxicity study in Beagle dogs (28 -day recovery period), red blood cells, hemoglobin, hematocrit, platelets, white blood cells, neutrophils, and fibrinogen increased in 3 mg/kg/day dose group. Total protein and globulin decreased, A/ G, fibrinogen, creatine kinase increased in the 1.5 mg/kg/day dose group. In addition, lymphocytes decreased was […]
the recovery period, all of the above changes recovered to normal. Intragastric HQP1351 3 […]
The main target organs for toxicity were stomach, intestine, thymus, spleen, lymph nodes and Peyer's patches, sternal bone marrow, lip and tongue mucosa, and toxicities were reversible to a certain extent. After 4-week drug withdrawal, all of the above symptoms of surviving animals in this group recovered to normal. The NOAEL was 1.5 mg/kg/day. […]
genotoxicity on bone marrow cells.
As of February 2021, HQP1351 has undergone a total of 9 clinical studies, including 3 Phase […]
conducted in China except for HQP1351CU101 and HQP1351XC106 which were conducted in the United States. […]
In the Phase I CML study of HQP1351 (SJ-0002), the PK of HQP1351 were assessed in a total of 65 CML patients receiving HQP1351 at dose levels of 1-60 mg every other day under fed

[3] = test system: GIST human gastrointestinal stromal tumor with different c-KIT mutations; parameters: method as in HQP1351 SJ0003 Protocol; conditions: ref HQP1351 SJ0003 Protocol, cited from earlier work
[4] = test system: c-KIT D816V; parameters: method as in HQP1351 SJ0003 Protocol; conditions: ref HQP1351 SJ0003 Protocol; cited from earlier work
[5] = parameters: method as in HQP1351 SJ0003 Protocol; conditions: ref HQP1351 SJ0003 Protocol; cited from earlier work
[6] = parameters: method as in HQP1351 SJ0003 Protocol; conditions: ref HQP1351 SJ0003 Protocol; cited from earlier work; remark: listed apart in the source
[7] = test system: CYP2C19; parameters: method as in HQP1351 SJ0003 Protocol; conditions: 0 - 50 μM; ref HQP1351 SJ0003 Protocol; cited from earlier work
[8] = test system: non-SDH-deficient GISTs; assay: Phase 1 study: antitumor efficacy per RECIST v1.1 in non-SDH-deficient GIST; assay type: in vivo, human
Method: AEs were evaluated at each follow-up visit: on Days 1, 8, 15, and 22 during Cycles 1 and 2; and on Days 1 and 15 in Cycle 3 and all subsequent cycles, up to 30 days after the final dose. All AEs were graded according to the National Cancer Institute Common Terminology Criteria for Adverse Events v4.03. Clinical laboratory investigations for routine blood examinations and serum chemistry parameters were performed during every cycle (on Day 1), during Cycles 1 and 2 (on Days 8, 15, and 22), and 30 days after the last dose of treatment. Urinalysis, coagulation, cardiac troponin I/T, lipase, amylase, and electrocardiographic evaluations were conducted at baseline; during Cycles 1 and 2 (on Days 1 and 15); during Cycles 3, 5, 7, and 9; every three cycles after Cycle 9 (on Day 1); and 14 days after the last dose of treatment. All patients underwent tumor imaging for response assessment via computed tomography or magnetic resonance imaging at screening and every two cycles (8 weeks) until progression or discontinuation. Target and nontarget lesions were assessed per the Response Evaluation Criteria in Solid Tumors version 1.1 (RECIST v1.1). […]
Antitumor activity was evaluated in patients from the GIST population (including those with SDH-deficient and non-SDH-deficient disease) who had undergone at least one postbaseline disease assessment. […]

[9] = parameters: method as in HQP1351 SJ0003 Protocol; conditions: ref HQP1351 SJ0003 Protocol; cited from earlier work; remark: listed apart in the source
[10] = test system: hERG potassium channels; parameters: method as in HQP1351 SJ0003 Protocol; conditions: ref HQP1351 SJ0003 Protocol; cited from earlier work
[11] = parameters: method as in HQP1351 SJ0003 Protocol; conditions: granules, single intragastric administration; ref HQP1351 SJ0003 Protocol; cited from earlier work
[12] = target: VEGFR1 (Homo sapiens, UniProt P17948); assay: In vitro biochemical kinase assay; conditions: kinase activity
Chain of VEGFR1 (P17948 27-1338): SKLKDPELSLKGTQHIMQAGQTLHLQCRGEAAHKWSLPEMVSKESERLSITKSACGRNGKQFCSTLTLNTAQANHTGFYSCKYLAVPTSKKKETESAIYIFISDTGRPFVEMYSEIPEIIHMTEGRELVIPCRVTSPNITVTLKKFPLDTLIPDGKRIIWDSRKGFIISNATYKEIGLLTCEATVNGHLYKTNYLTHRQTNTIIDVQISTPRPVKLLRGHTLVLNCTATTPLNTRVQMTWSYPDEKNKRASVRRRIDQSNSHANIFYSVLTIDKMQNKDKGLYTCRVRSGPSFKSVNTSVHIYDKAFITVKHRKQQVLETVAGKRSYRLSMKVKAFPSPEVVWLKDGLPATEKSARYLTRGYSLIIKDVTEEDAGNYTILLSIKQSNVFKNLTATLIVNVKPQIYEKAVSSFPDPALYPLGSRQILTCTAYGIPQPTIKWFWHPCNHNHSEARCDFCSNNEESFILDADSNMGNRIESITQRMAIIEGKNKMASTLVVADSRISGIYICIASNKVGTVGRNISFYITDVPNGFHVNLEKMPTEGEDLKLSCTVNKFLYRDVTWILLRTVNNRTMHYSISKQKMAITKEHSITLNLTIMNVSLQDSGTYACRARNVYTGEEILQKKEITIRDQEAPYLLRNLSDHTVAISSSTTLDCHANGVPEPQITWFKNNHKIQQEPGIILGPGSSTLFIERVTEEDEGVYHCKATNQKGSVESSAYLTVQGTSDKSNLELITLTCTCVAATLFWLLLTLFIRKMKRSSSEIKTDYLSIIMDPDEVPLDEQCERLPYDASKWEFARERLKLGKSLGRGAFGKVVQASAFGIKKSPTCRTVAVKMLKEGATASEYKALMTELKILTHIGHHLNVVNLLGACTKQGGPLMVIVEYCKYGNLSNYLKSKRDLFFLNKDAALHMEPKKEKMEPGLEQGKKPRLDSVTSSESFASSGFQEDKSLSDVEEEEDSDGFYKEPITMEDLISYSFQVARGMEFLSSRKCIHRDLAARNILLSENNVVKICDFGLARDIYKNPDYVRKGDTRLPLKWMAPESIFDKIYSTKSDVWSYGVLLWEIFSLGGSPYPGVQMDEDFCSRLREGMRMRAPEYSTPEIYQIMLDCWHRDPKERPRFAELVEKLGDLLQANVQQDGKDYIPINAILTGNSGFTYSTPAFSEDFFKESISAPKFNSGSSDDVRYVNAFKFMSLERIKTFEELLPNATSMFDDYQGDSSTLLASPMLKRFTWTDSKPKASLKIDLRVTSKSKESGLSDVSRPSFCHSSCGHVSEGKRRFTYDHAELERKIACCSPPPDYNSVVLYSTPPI

## Cc1ccc(C(=O)Nc2ccc(CN3CCN(C)CC3)c(C(F)(F)F)c2)cc1C#Cc1cnc2[nH]ncc2c1 [Olverembatinib, 3-[(1H-pyrazolo[3,4-b]pyridin-5-yl)ethynyl]-4-methyl-N-{4-[(4-methylpiperazin-1-yl)methyl]-3-(trifluoromethyl)phenyl]benzamide]
[1]
  IC50: 0.13 nM
[2]
  subjects with progressive disease (PD): 18 subjects
[3]; 20 mg/kg qod
  T/C (%) after the end of dosing: 30.8%-69.8%
[3]; 60 mg/kg qod 3 wks, in some tests
  weight loss: about 10%
[3]; every other days (qod)
  minimal effective dose: 20 mg/kg
[4]
  inhibition rate: 20%-40%
[5]
  difference in binding rate to plasma protein at different concentrations or among species: No significant difference
[6]
  maximum tolerated dose (MTD): 15 mg/kg
[7]
  inhibitory effect on CYP2C19: certain inhibitory effect
[8]; 25 evaluable patients
  response: no response was observed
[8]; patients with non-SDH-deficient GISTs, Kaplan-Meier
  median PFS: 2.9 (1.7–5.2) months
[9]
  unchanged drug oxidized NADPH-dependently: Less than 20%
[10]
  inhibitory activity on hERG potassium channels: no inhibitory activity
[11]
  safe dose on the function of the central nervous system: ≥ 1.5 mg/kg
[12]
  IC50: < 0.6 nM
